Assay results from patent EP4201411A1, “NOVEL USE OF VITAMIN B12” (DSM IP Assets B.V., priority 2021, dated 2023).

Assays:
Assay type in all cases: cell-based, human
ASC protein = assay: ASC immunostaining of sections of UV-B irradiated skin explants (ex vivo); details: for ASC complex, % / ASC complex, mean_int (int/area) / ASC complex, Mean intensity / condition: skin explant sections, UVB 200mJ/cm2; for ASC complex, %: NTNS = 100.00, NTUV = 138.17; for ASC complex, mean_int (int/area) / ASC complex, Mean intensity / condition: n =38; for ASC complex, Mean intensity / condition: NTUV = 660.03, NTNS = 477.70
Method: (§1) To further define the benefits of vitamin B12 in the skin, we included analysis of the compound in response to a stressor that induces inflammasome-medicated inflammation. Stress model options include UV exposure, confirming the effects on more complex skin tissues (ex vivo model). Firstly, the cytotoxicity of the active ingredient was evaluated. Then, the capacity of the active ingredient was measured to regulate inflammasome activation. […] Using immunohistochemistry, the effect of the active ingredient on the level of ASC protein (inflammasome marker) was studied. Finally, the expression level of miRNA hsa-miR-22-3p was quantified from RT-qPCR.
(§2) Ex vivo culture model and treatment: Fresh skin explants were obtained from abdominal surgery of a person. The culture medium dedicated to skin explants was used and renewed every day during each treatment. The skin biopsies were cultured in different conditions and each condition was performed in triplicates and processed separately. The active ingredient treatment was applied before and after the UV-B stress, but not during the UV stress. An UV-B irradiation of […] for 2 minutes was applied identically onto each irradiated skin explant. Prior to the irradiation, the culture medium was removed and replace by PBS +/+ for the duration of the stress.
(§3) Samples: • 1.Control Explant (No treatment, no irradiation) (NT_NS) • 2. Explant + UVB (NT_UV) • 3. Explant + UVB + vitamin B12 (0.01%) • 4. Explant + UVB + vitamin B12 (0.001%) Total no. of samples = 4 x 3 = 12 samples
To evaluate the onset of apoptotic signaling, the fluorescence intensity of ASC was measured. After UV exposure, the explants were replaced in a fresh culture medium. At the end of the treatments the explants were frozen and then cut into thin sections. Following this, immunohistochemistry was performed by adding primary monoclonal Antibody ASC/TMS1/PYCARD (clone B-3) (SantaCruz #sc-514414) and secondary antibody anti-mouse coupled to Cy5 (Jackson Laboratory). After Hoechst 33342 staining, the fluorescence intensity was measured using a Zeiss fluorescence microscope (Axio imager Z1).
Table 4: Quantification of ASC complex immunolabelled in skin explant sections with or without UV-B stress and after vitamin B12 treatment at 0,01% or 0,001% and irradiated or not with UVB at 200mJ/cm2. The statistical analysis was performed using two-tailed unpaired T-test vs NT_UV (+ p-value <0.05, ++ p-value<0.01, +++ p-value<0.001).

Interleukin-1β = assay: IL-1β competitive ELISA on culture supernatants of UV-B irradiated skin explants (ex vivo); details: vitamin B12 0,01%
Method: as §1, §2, §3
The secretion of Interleukin-1β in response to activation of the stress-induced inflammatory signaling pathway was evaluated using a competitive ELISA assay. 24 hours after exposure to UV-B irradiation, culture supernatants of explants were recovered. The samples were then treated according to the manufacturer's instructions using the IL-1β (RAB0273, Sigma Aldrich). The Interleukin production by explants was measured at 450 nm using ENSIGHT.
IL-1β secretion results: UV-B increased the production of IL-1β compared to the untreated control. […]

miR-22-3p = miR-22-3p quantification by RT-qPCR in UV-B irradiated skin explants (ex vivo); details: for miR-22-3p QR mean: skin explants, UV-B 200 mJ/cm2, normalized using U6 RNA, NT_UV = 1.067; for expression level of miR-22-3p (in words): skin explants after UV-B stress, vs NT_UV
Method: as §1, §2, §3
The miRNAs were extracted and purified using miRCURY RNA Isolation Kit. The quality control and miRNA quantification were performed using Agilent RNA Small kit and Analysis Agilent 2100 bioanalyzer. For miR qPCR, the RNA was reverse transcribed with a miRCURY LNA RT kit (339340, Qiagen). The reverse transcription reactions were diluted, and a fraction of diluted cDNA was used for each quantitative PCR, which was performed with a miRCURY LNA SYBR Green PCR kit (339346, Qiagen) using the CFX-connect (Biorad). The results were normalized to U6 expression. The reference and expression level of miRNA were calculated using 2ΔΔCt method.
Table 2: Effect of vitamin B12 on miR expression in skin explants after UV-B stress. The explants were treated with vitamin B12 at two concentrations (0,01% and 0,001%) and irradiated with UV-B at 200 mJ/cm2. The miR expression was normalized using U6 RNA. Two-tailed unpaired t-test was used for statistical analysis (using values from 3 replicates) vs NT_UV (*p-value <0.05).

skin explants = assay: LDH cytotoxicity assay on UV-B irradiated skin explants (ex vivo); details: for Cytotoxicity [OD 450 nm] Mean/conditions: LDH production, skin explants irradiated with 200 mJ/cm2 UVB
Method: as §1, §2, §3
Cytotoxicity method: Lactate dehydrogenase assay kit (LDH) was purchased from Roche and used according to manufacturer's protocol.
Table 1: Effect of vitamin B12 on LDH production by skin explants at 2 concentrations (0,01% and 0,001%) and of the positive control Triton at 0.1% after irradiation with 200 mJ/cm2 UVB. The statistical analysis was performed using two-tailed unpaired T-test and was not significant (p<0.05) for the vitamin B12 treatment vs irradiated control (NT_UV).

cyanocobalamin [vitamin B12]
ASC complex, % (ASC protein; vitamin B12 0,01%): 103.22%
ASC complex, mean_int (int/area) (ASC protein; vitamin B12 0,01%): 491.31 int/area
ASC complex, Mean intensity / condition (ASC protein; vitamin B12 0,01%): 493.07
ASC protein (in words) (ASC protein; vitamin B12 0.001 % and 0.01 % topically on UV-irradiated skin explants): significantly reduced the ASC protein in a dose-dependent manner
ASC complex activation (in words) (ASC protein; vitamin B12 0.001%, after UV-B treatment): significantly reduces the ASC complex activation
ASC complex activation (in words) (ASC protein; vitamin B12 0.01%, compared to the UV-B stressed sample): significantly reduce the ASC complex activation to the level of the none irradiated extract
ASC complex, % (ASC protein; vitamin B12 0,001%): 118.48%
ASC complex, mean_int (int/area) (ASC protein; vitamin B12 0,001%): 524.44 int/area
ASC complex, Mean intensity / condition (ASC protein; vitamin B12 0,001%): 565.99
IL-1β secretion (in words) (Interleukin-1β; skin explants after UV-B stress): seems to decrease
IL-1β secretion, Relative Intensity (Interleukin-1β; skin explants after UV-B, NT_NS = 100, NT_UV = 157): 137
IL-1β secretion, Mean Intensity (Interleukin-1β; skin explants, 24 hours after UV-B, NT_UV = 4.914, NT_NS = 3.122): 4.2644
miR-22-3p QR mean (miR-22-3p; vitamin B12 0,01%): 1.721
expression level of miR-22-3p (in words) (miR-22-3p; vitamin B12 0.01%): significantly increased
expression level of miR-22-3p (in words) (miR-22-3p; vitamin B12 0,001%): tends to increase miR-22-3p expression, but this activation is not statistically significant
miR-22-3p QR mean (miR-22-3p; vitamin B12 0,001%): 1.334
Cytotoxicity [OD 450 nm] Mean/conditions (skin explants; vitamin B12 0,01%): 0.131 OD 450 nm
Cytotoxicity [OD 450 nm] Mean/conditions (skin explants; vitamin B12 0,001%): 0.163 OD 450 nm
cytotoxicity (in words) (skin explants; vitamin B12 0,01% and 0,001%, skin explants after UVB, compared to biopsies treated with Triton 0.1%): did not exert cytotoxicity
